{
  "source": "patent US20050277586A1",
  "about": "“Peptide chemically modified with polyethylene glycol” (priority 2002, published 2005)",
  "key": {"[1]": {"test_system": "Lewis lung carcinoma cell", "assay": "In vivo HSV-tk gene introduction plus GCV, survival of mice with Lewis lung carcinoma in abdominal cavity", "set-up": "species or system mouse", "settings": "GCV only, 30 mg/kg/day", "procedure": "To be more specific, 1×10^5 Lewis lung carcinoma cells were transplanted in the abdominal cavity of a C57BL/6 mouse (purchased from Charles River JAPAN), and a mixture of 10 μg of the HSV-tk-expressing plasmid prepared in Example 7 and 40 nmol of the peptide of SEQ ID NO: 16 prepared in Example 1 was administered in the abdominal cavity after the cell transplantation. The mouse was also administered with GCV at a dose of 30 mg/kg/day from 1st to 8th day after the transplantation."}, "[2]": {"assay": "Toxicity of the peptide, tail vein administration", "format": "in vivo", "settings": "female BALB/c mouse, 5 mg/kg", "procedure": "The peptide used in the present invention was administered to a mouse from its tail vein to thereby evaluate its toxicity. The mouse used was a female BALB/c mouse of 5 week old, and the peptide was used at a dose of 5 mg/kg."}, "[3]": {"test_system": "Vero cell, T24 cell, A549 cell", "assay": "Nucleic acid-introducing ability, luciferase-expressing plasmid (procedure of Example 9)", "format": "cell-based", "text": "A cell line established from monkey kidney (Vero cell) and a human bladder cancer cell (T24 cell) purchased from American Type Culture Collection (ATCC) and human lung cancer cell (A549 cell) purchased from Dainippon Pharmaceutical were inoculated on a 24 well culture plate (manufactured by NALGEN NUNC) at 1×10^5 cells/well. Vero cell and A549 cell were cultivated in DMEM (manufactured by Life Technologies Oriental) supplemented with 10% fetal bovine serum (hereinafter referred to as FBS, manufactured by NICHIREI), and T24 cell was cultivated in McCoy's 5a (manufactured by Life Technologies Oriental) supplemented with 10% FBS in 5% CO2 atmosphere at 37° C. for 24 hours. After removing the medium, opti-MEM (manufactured by Life Technologies Oriental) prepared to have the concentration of the luciferase-expressing plasmid prepared in Example 7 of 1 μg/mL and the concentration of the peptide prepared in Example 1 of 1.25, 2.5, or 5 μM was added, and the cells were cultivated for 5 hours. Next, in the case of Vero cell and A549 cell, the culture medium was replaced with DMEM supplemented with 10% FBS, and in the case of T24 cell, the medium was replaced with McCoy's 5a supplemented with 10% FBS, and cultivation was continued in 5% CO2 atmosphere and at 37° C. for another 24 hours. The luciferase activity expressed in the cell was then measured by the method instructed in luciferase assay system (manufactured by Promega). To be more specific, the cells were washed with phosphate-buffered saline (hereinafter referred to as PBS, manufactured by SIGMA), and the cells were lyzed with Passive Lysis Buffer attached to the kit.\n20 μL of this cell lysate and 100 μL of the Luciferase Assay Reagent II attached to the kit was added to a fluorescence-measuring plate (Microlite™ 1 plate, manufactured by Dynatech), and after mixing, fluorescence was measured for 1 second by using a multilabel counter (ARVO™ SY1420 MULTILABEL COUNTER, manufactured by Wallac Beltold.\nConcentration of the protein in the cell lysate was measured by mixing 8 μL of the cell lysate and 200 μL of the protein assay solution (manufactured by Biorad) with 792 μL of ultrapure water in a disposable cuvette (UV fluorescent cuvette A204X, manufactured by Funakoshi), allowing the mixture to stand for 5 minutes at room temperature, and measuring the absorption at 595 nm with a spectrophotometer (DU640, manufactured by Beckman). Bovine serum albumin (BSA) was used for the standard protein. By using the thus obtained results, count per 1 second per 1 mg of protein of the cell lysate was calculated to thereby use the count as the luciferase activity, and the highest count in the three conditions of different peptide concentration was designated the gene-introducing ability of the peptide."}, "[4]": {"assay": "Measurement of CD spectrum with and without SDS", "format": "physicochemical", "settings": "10 mM phosphate buffer pH 7, 50 mM NaCl, 35° C.; for α-helix structure in CD spectroscopy in the presence of SDS: 5 mM SDS", "procedure": "The peptide dissolved in 10 mM phosphate buffer (pH=7) containing 50 mM NaCl was evaluated for its CD spectrum in the presence and in the absence of 5 mM SDS by using a circular dichroism spectrophotometer (J-500A, manufactured by JASCO). The cell length was 1 mm. The measurement was conducted at 35° C. for 6 times in total."}, "Vero cell": {"test_system": "Vero cell", "assay": "Storage stability of the complex with nucleic acid (gene-introducing activity after 4° C., 1 week)", "format": "cell-based, monkey", "settings": "complex with luciferase plasmid stored at 4° C. for 1 week", "procedure": "Luciferase-expressing plasmid was introduced in Vero cell in accordance with the procedure described in Example 9 by using the opti-MEM prepared to have a concentration of the luciferase-expressing plasmid prepared in Example 7 of 2 μg/mL and a concentration of the peptide of SEQ ID NO: 4 prepared in Example 1 of 5 μM to thereby measure the luciferase activity. The opti-MEM containing plasmid and peptide used were the one which had been prepared immediately before the gene introduction, and the one which had been prepared 1 week (7 days) in advance and stored at 4° C.\nFor the purpose of reference, gene-introducing activity of Lipofectin and LipofectAMINE 2000 (manufactured by Life Technologies Oriental), which are commercially available plasmid-introducing agents, were also evaluated by mixing these reagent with luciferase-expressing plasmid in accordance with the attached protocol, and evaluating their gene-introducing activity after storing at 4° C. for 1 week."}, "[5]": {"assay": "Affinity for phosphatidyl serine by surface plasmon resonance (Biacore 2000)", "format": "binding", "settings": "in the presence of 0.1 mg/mL BSA", "procedure": "The specific affinity of the peptide for phosphatidyl serine was evaluated by means of surface plasmon resonance (SPR) using Biacore 2000 (manufactured by Biacore). To be more specific, phosphatidyl choline was immobilized on flow cell 1, and 50% of phosphatidyl serine and 50% of phosphatidyl choline were immobilized on flow cell 2 of HPA chip (manufactured by Biacore), and ability of the peptide to bind to the phospholipid was evaluated in the presence of 0.1 mg/mL BSA to thereby evaluate the affinity."}},
  "note": "No end group written: not given here.",
  "data": [
    {"compound": "Nc1nc(O)c2ncn(COC(CO)CO)c2n1", "note": "[GCV, ganciclovir]", "values": [
      {"measurement": "Average survival period", "setting": "[1]", "value": 14, "unit": "days"}
    ]},
    {"compound": "LARLLARLLARLLRALLRALLRAL [SEQ ID NO: 27]", "values": [
      {"measurement": "Toxicity after tail vein administration", "setting": "[2]", "value": "died immediately after the administration"}
    ]},
    {"compound": "SEQ ID NO: 4: SEQ ID NO: 1 with one or two locations in the 18 amino acid sequence substituted (TRYLRIHPRSWLHQIALRLRYLRIHPRSWLHQIALRS)", "values": [
      {"measurement": "Nucleic acid-introducing ability", "setting": "[3]; luciferase plasmid 1 μg/mL, highest count of peptide 1.25, 2.5 or 5 μM, cell line not stated", "value": "4+ (10,000,000 to less than 100,000,000)"},
      {"measurement": "α-helix structure in CD spectroscopy in the presence of SDS", "setting": "[4]", "value": "are in α-helix structure in the presence of SDS"},
      {"measurement": "α-helix structure in CD spectroscopy in the absence of SDS", "setting": "[4]; no SDS", "value": "do not take α-helix structure in an aqueous solution solely containing an inorganic salt"},
      {"measurement": "Gene-introducing activity after storage relative to freshly prepared complex", "setting": "Vero cell", "value": "substantially equivalent"}
    ]},
    {"compound": "SEQ ID NO: 25: same amino acid composition as SEQ ID NO: 1 but with an utterly random amino acid sequence (TIRYRPSHQIRLRAVLHLWIRYRPSHQIRLRAVLHWS) [reference compound]", "values": [
      {"measurement": "Binding to flow cell 2 (50% phosphatidyl serine, 50% phosphatidyl choline) and flow cell 1 (phosphatidyl choline)", "setting": "[5]", "value": "showed no binding"},
      {"measurement": "Ability of introducing the nucleic acid into a cell", "setting": "[3]; procedure of Example 9", "value": "neither the nucleic acid-introducing ability"},
      {"measurement": "α-helix structure in CD spectroscopy in the presence of SDS", "setting": "[4]", "value": "no α-helix structure is found even in the presence of SDS"}
    ]}
  ]
}
